Measured values: patent US20230065953A1, “NOVEL HETEROARYL-TRIAZOLE COMPOUNDS AS PESTICIDES” (Bayer Aktiengesellschaft, priority 2019, published 2023)

Assays:
Assay type in all cases: in vivo
[1] = test system: adult mosquitoes Anopheles funestus strain FUMOZ-R; assay: Anopheles funestus test (ANPHFU surface treatment & contact assay); conditions: surface concentration 4 mg/m^2, 30 min exposure, 24 hours after contact, read-out: efficacy (mortality)
Procedure: Anopheles funestus Test (ANPHFU Surface Treatment & Contact Assay) • Solvent: Aceton+2000 ppm rapeseed oil methyl ester (RME)
(§1) In order to produce a sufficient, active ingredient containing solution it is necessary to solve the test compound in the solvent-mix (acetone at 2 mg/ml/RME 2000 ppm). This solution is pipetted onto a glazed tile and after evaporation of the acetone, adult mosquitoes of the species Anopheles funestus strain FUMOZ-R (Hunt et al., Med. Vet. Entomol. 2005 September; 19(3): 271-275) are placed onto the dried surface. The exposure time is 30 minutes.
(§2) Mortality in percent (%) is determined 24 hours after contact of the insects to the treated surface. 100% mortality means that all tested insects are dead, whereas 0% means that no insect died.

[2] = test system: adult mosquitoes Aedes aegypti strain MONHEIM; assay: Aedes aegypti test (AEDSAE surface treatment & contact assay); conditions: 24 hours after contact, read-out: efficacy (mortality); for mortality at 4 mg/m2: surface concentration 4 mg/m^2, 30 min exposure; for mortality at 20 mg/m2: surface concentration 20 mg/m^2, 30 min exposure
Outline: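 Test compound in acetone (2 mg/ml) with 2000 ppm rapeseed oil methyl ester was dried onto a glazed tile. Adult Aedes aegypti MONHEIM were exposed to the treated surface for 30 minutes. Percent mortality was scored 24 hours after contact.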

[3] = test system: cattle ticks (Rhipicephalus microplus) strain Parkhurst, SP-resistant; assay: Rhipicephalus (Boophilus) microplus dip test; conditions: 100 ppm, egg deposition after 7 days
Procedure: Rhipicephalus (Boophilus) Microplus—Dip Test
Test animal: cattle ticks (Rhipicephalus microplus) strain Parkhurst, SP-resistant
Solvent: dimethyl sulfoxide
To produce a suitable preparation of active compound, 10 mg of active compound are dissolved in 0.5 mL solvent, and the concentrate is diluted with water to the desired concentration.
This compound solution is pipetted into tubes. 8-10 engorged, adult, female cattle ticks (Rhipicephalus microplus) are placed in perforated tubes. These tubes are immersed in the aqueous compound solution until the ticks are completely moistened. After the liquid has drained off, the ticks are transferred to a filter paper in a plastic tray and stored in a climate chamber.
After 7 days egg deposition of fertile eggs is monitored. Eggs where fertility is not visible are stored in a climate chamber till hatching after about 42 days. An efficacy of 100% means all eggs are infertile; 0% means all eggs are fertile.

[4] = test system: adult engorged female ticks (Rhipicephalus microplus); assay: Rhipicephalus (Boophilus) microplus injection test; conditions: 168 h, egg deposition after 7 days, read-out: efficacy (infertile eggs); for pest or weed control at 0.004 mg: 4 μg/animal
Outline: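 Five adult engorged female ticks each injected into the abdomen with 1 μL of compound in DMSO, then kept in a climate chamber. Fertile egg deposition assessed after 7 days, with unclear eggs held until hatching around 42 days; efficacy 100% means all eggs infertile, 0% all fertile.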

[5] = test system: adult mosquitoes Culex quinquefasciatus strain P00; assay: whole plant or invertebrate; conditions: read-out: efficacy (mortality)
Procedure: Culex quinquefasciatus Test (CULXFA Surface Treatment & Contact Assay) • Solvent: Aceton+2000 ppm rapeseed oil methyl ester (RME)
as §1, with “2 OOOppm).” for “2000 ppm).”, “Culex quinquefasciatus” for “Anopheles funestus”, “P00” for “FUMOZ-R (Hunt et al., Med. Vet. Entomol. 2005 September; 19(3): 271-275)”
as §2

[6] = test system: brown planthopper (Nilaparvata lugens); assay: Nilaparvata lugens spray test; conditions: 96 h, 100 g/ha, rice plants, after 4 days
Procedure: Nilaparvata lugens—Spray Test • Solvent: 78.0 parts by weight of acetone • 1.5 parts by weight of dimethylformamide • Emulsifier: alkylarylpolyglycol ether
To produce a suitable preparation of active compound, 1 part by weight of active compound is mixed with the stated amount of solvents and is diluted with water, containing an emulsifier concentration of 1000 ppm, to the desired concentration. Further test concentrations are prepared by dilution with emulsifier containing water.
Rice plants (Oryza sativa) are sprayed with a preparation of the active ingredient of the desired concentration and the plants are infested with the brown planthopper (Nilaparvata lugens).
After 4 days mortality in % is determined. 100% means all planthoppers have been killed and 0% means none of the planthoppers have been killed.

[7] = test system: green peach aphid (Myzus persicae); assay: Myzus persicae spray test; conditions: foliar, 120 h, Chinese cabbage leaf disks, after 5 days
Outline: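 Chinese cabbage leaf discs infested with all instars of the aphid were sprayed with compound prepared in acetone/DMF and diluted in water containing 1000 ppm emulsifier. Mortality (%) was scored after 5 days, 100% meaning all aphids killed and 0% none.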

[8] = test system: larvae of the southern green stink bug (Nezara viridula); assay: Nezara viridula spray test; conditions: in Hordeum vulgare, 96 h
Outline: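 Barley plants sprayed with compound in acetone/dimethylformamide, diluted in water with 1000 ppm alkylarylpolyglycol ether emulsifier, then infested with Nezara viridula larvae. Percent mortality read after 4 days (100% = all killed, 0% = none).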

C[C@H](NC(=O)c1cc(C(F)(F)F)cc(C(F)(F)F)c1)c1ncnn1-c1ncc(C#N)s1 [I-2]
mortality at 4 mg/m2 [1]: 80 to 100%
mortality at 4 mg/m2 [2]: 80 to 100%
mortality at 20 mg/m2 [2]: 80 to 100%
efficacy (infertile eggs) [3]: 100%
pest or weed control at 0.004 mg [4]: 100%
pest or weed control at 0.02 mg ([4]; 20 μg/animal): 100%
mortality at 4 mg/m2 [5]: 80 to 100%

Cc1nc([C@H](C)NC(=O)c2cc(C(F)(F)F)cc(C(F)(F)F)c2)n(-c2ncc(C(=O)N(C)CC3CC3)s2)n1 [I-4]
mortality at 100 g/ha [6]: 90%
mortality at 100 g/ha [7]: 90%
mortality at 20 mg/m2 [2]: 80 to 100%
pest or weed control at 0.004 mg [4]: 100%

Cc1nc([C@H](C)NC(=O)c2cc(C(F)(F)F)cc(C(F)(F)F)c2)n(-c2ncc(C(=O)N(C)C)s2)n1 [I-5, 2-(5-{(1S)-1-[3,5-bis(trifluoromethyl)benzamido]ethyl}-3-methyl-1H-1,2,4-triazol-1-yl)-N,N-dimethyl-1,3-thiazole-5-carboxamide]
mortality at 100 g/ha [6]: 100%
mortality at 100 g/ha [7]: 90%
efficacy (infertile eggs) [3]: 100%
pest or weed control at 0.004 mg [4]: 100%

CCN(C)C(=O)c1cnc(-n2nc(C)nc2[C@H](C)NC(=O)c2cc(C(F)(F)F)cc(C(F)(F)F)c2)s1 [I-6]
mortality at 100 g/ha [6]: 100%
mortality at 100 g/ha [7]: 100%
mortality at 4 mg/m2 [2]: 80 to 100%
efficacy (infertile eggs) [3]: 100%
pest or weed control at 0.004 mg [4]: 100%

Cc1nc([C@H](C)NC(=O)c2cc(C(F)(F)F)cc(C(F)(F)F)c2)n(-c2ncc(C(=O)N(C)CC#N)s2)n1 [I-9]
mortality at 100 g/ha [6]: 100%
mortality at 100 g/ha [7]: 100%
mortality at 4 mg/m2 [2]: 80 to 100%
mortality at 20 mg/m2 [2]: 80 to 100%
mortality at 100 g/ha [8]: 90%
efficacy (infertile eggs) [3]: 100%
pest or weed control at 0.004 mg [4]: 100%

Cc1nc([C@H](C)NC(=O)c2cc(C(F)(F)F)cc(C(F)(F)F)c2)n(-c2ncc(C(N)=O)s2)n1 [I-21, 2-(5-{(1S)-1-[3,5-bis(trifluoromethyl)benzamido]ethyl}-3-methyl-1H-1,2,4-triazol-1-yl)-1,3-thiazole-5-carboxamide]
mortality at 100 g/ha [7]: 100%
mortality at 4 mg/m2 [2]: 80 to 100%
mortality at 20 mg/m2 [2]: 80 to 100%
mortality at 100 g/ha [8]: 100%
pest or weed control at 0.004 mg [4]: 100%
